Assay results as given in US20220008368A1, “METHODS AND COMPOSITIONS RELATED TO TARGETING FFAR2 AND ILC3 POPULATIONS FOR THE TREATMENT OF A GASTROINTESTINAL DISEASE” (PRESIDENT AND FELLOWS OF HARVARD COLLEGE, priority 2018, published 2022).
Where two headings read alike, the source gives them in different places. *1 amine or outer side, *2 acyl side, *3 side chain or, on linkers, in order; H or OH if unused. Where a SMILES comes first, the peptide text is derived from it. Bridges are numbered along the chain shown (N, C = ends). [ ]: non-standard residue; d: D form. X1 = CC(=O)NC(C(=O)OC(C(C)C)C(N[*:1])C(=O)[*:2])C(O)C(C)C; PhLac = O=C(O)[CH](O)Cc1ccccc1; NMeT = CN[CH](C(=O)O)[CH](C)O; NMeA = CN[CH](C)C(=O)O; NMeDha = C=C(NC)C(=O)O

What was measured:
sorted colonic ILC3s [1] = test: Flow analysis of intracellular signaling (AKT, p38, ERK, STAT3 phosphorylation) in sorted colonic ILC3s from WT mice; format: cell-based, mouse
Experimental: For analysis of intracellular signaling in ILC3s (Ibiza et al., 2016), sorted colonic ILC3s were rested for 2 hours in RPMI at 37° C.
AKT and STAT3 inhibition. Sorted colonic ILC3s were rested for 2 hours in RPMI at 37° C. For analysis of STAT3 phosphorylation, cells were incubated with […] AKT inhibitor VIII (VIII, Sigma-Aldrich) (Ibiza et al., 2016) or vehicle as a control (DMSO) for 1h at 37° C. before stimulation with the Ffar2 agonist (10 μM/ml dissolved in water, pH 7.4). To determine Il22 expression levels, cells were incubated with 10 μM AKT inhibitor VIII, 10 μM STAT3 inhibitor VI (S3I, Sigma-Aldrich) (Ibiza et al., 2016) or vehicle during overnight stimulation with Ffar2 agonist at 37° C.

sorted colonic ILC3s [2] = test: Il22 mRNA expression in sorted colonic ILC3s (qRT-PCR); format: cell-based, mouse; details: for Il22 expression upon Ffar2 activation with the Ffar2 agonist: overnight with Ffar2 agonist, AKT inhibitor VIII 10 μM, STAT3 inhibitor 10 μM
Experimental: RNA isolation and real-time quantitative PCR (qRT-PCR). For analysis of sorted colonic immune cell populations including ILC subsets and colonic ILC3s, RNA was isolated using the RNeasy Micro Kit (Qiagen) or RNeasy Mini Kit (Qiagen) according to the manufacturer's protocol. For analysis of colonic epithelial cells or colon tissues, cells or tissues were homogenized directly into Qiazol (Qiagen), and RNA was isolated via chloroform extraction. The quantity and quality of RNA was determined using a NanoDrop (Thermo Scientific). […] Quantitative real-time PCR was carried out on cDNA with SYBR FAST Universal qPCR Master Mix (KAPA Biosystems). Reactions were run on a Stratagene Mx3005P machine (Agilent Technologies). The expression of individual genes was normalized to housekeeping gene β-actin expression on the base of the ΔΔCt algorithm. Some results are shown as a fold induction relative to expression levels in colonic epithelial cells as indicated. AKT and STAT3 inhibition.

colonic ILC3s [3] = test: Colonic RORγt+ ILC3s in germ-free WT mice fed Ffar2 agonist or sodium acetate; format: in vivo, mouse; details: Ffar2 agonist 700 μM or sodium acetate 150 mM in drinking water, 1-2 weeks
Experimental: GPR43 agonist. […] SCFA intervention. […] WT mice received sodium chloride (150 mM). […] Flow cytometry.

sorted colonic ILC3s [4] = test: In vitro BrdU incorporation in sorted colonic ILC3s; format: cell-based, mouse; details: acetate 10 mM or propionate 10 mM with BrdU 10 μM overnight
colonic ILC3s [5] = details: WT mice, drinking water 2 weeks; acetate 150 mM, propionate 150 mM, butyrate 100 mM; control sodium chloride
Experimental: SCFA intervention. […] WT mice received sodium chloride (150 mM). […] Drinking water solutions were freshly prepared and changed every 5 days.
Isolation of colonic epithelial cells and immune cells. Colons were dissected and fat and blood vessels were removed. Colons were cut open longitudinally and washed with PBS to remove feces and debris, then incubated in PBS containing 5 mM EDTA, 0.145 mg/ml Dithiothreitol (Sigma-Aldrich), 3% FBS and 1% penicillin/streptomycin (P/S) for 15 min at 37° C. for 2 cycles. After being vortexed for 15s, the dissociated cells were collected as colonic epithelial cells. For the isolation of lamina propria immune cells, the remaining colonic tissues were washed twice in PBS, cut into 1 mm in length, and digested in RPMI 1640 containing 0.5 mg/ml collagenase D (Roche), 0.01 mg/ml DNase I (Roche), and 0.5 mg/ml Dispase (Stem Cell Technologies) for 30 min at 37° C. on a shaking platform. The digested tissues were passed through 70 μm strainers after being vigorously vortexed for 15s. Then, colonic immune cells were collected and resuspended in PBS with 1% fetal bovine serum and 1% penicillin-streptomycin solution (Corning) for flow cytometry analysis, FACSAria sorting or RNA extraction.
Flow cytometry. Single-cell suspensions were stained with a combination of fluorescently conjugated monoclonal antibodies. CD16/32 antibody (93; BioLegend) was used to block the non-specific binding to Fc receptors before surface staining. Cells were stained with Fixable yellow dead cell stain kit (Invitrogen) for the detection of live/dead cells before staining of the cell surface. All antibodies were purchased from BioLegend unless otherwise specified. For surface marker staining, antibodies to the following mouse proteins were used: CD45 (30-F11), CD90.2 (53-2.1), lineage markers (17A2/RB6-8C5/RA3-6B2/Ter-119/M1/70), CCR6 (29-21.17), NKp46 (29A1.4), CD11b (M1/70), CD11c (N418), Gr-1 (RB6-8C5), MHC class II (M5/114.15.2), NK1.1 (PK136), KLRG1 (2F1), CD3c (145-2C11), CD4 (RM4.5). […]

Ffar2 = molecular target: T1, Ffar2 (Homo sapiens, UniProt O15552); details: cited from earlier work; for agonism of Ffar2 among SCFAs: compared among acetate, propionate and butyrate
T1 sequence (O15552 1-330): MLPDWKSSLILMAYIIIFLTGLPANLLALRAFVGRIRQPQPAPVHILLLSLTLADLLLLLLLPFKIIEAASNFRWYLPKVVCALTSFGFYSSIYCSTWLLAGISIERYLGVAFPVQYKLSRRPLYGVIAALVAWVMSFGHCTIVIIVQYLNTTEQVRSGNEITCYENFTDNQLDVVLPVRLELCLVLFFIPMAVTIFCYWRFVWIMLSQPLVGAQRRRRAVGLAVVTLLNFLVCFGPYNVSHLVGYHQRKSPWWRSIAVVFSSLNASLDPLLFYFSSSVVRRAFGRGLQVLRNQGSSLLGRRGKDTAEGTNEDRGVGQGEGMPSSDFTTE

Peyer's patch ILC3s = details: cited from earlier work
C57BL/6 Rag2−/− mice = test: T cell-transfer colitis model; format: in vivo, mouse; details: Ffar2 agonist or sodium propionate for 6 weeks
Experimental: GPR43 agonist. […] SCFA intervention. […] WT mice received sodium chloride (150 mM). […] Histology. Colons were cleaned with PBS prior to fixation in 4% PFA and then processed by routine paraffin embedding, sectioning and H&E staining. Colitis scores were determined by a pathologist (J. N. G.), who was blinded to the experimental parameters. Each of the four histologic parameters was scored as absent (0), mild (1), moderate (2), or severe (3): mononuclear cell infiltration, polymorphonuclear cell infiltration, epithelial hyperplasia, and epithelial injury. The scores for the parameters were summed to generate the cumulative histologic colitis score as previously described^60, 61. For the DSS-induced model, cumulative histologic scores were also quantified as to the percentage involvement by the disease process: […] (3) 30-50%; (4) >50% and presented as histologic colitis scores^62 as follows: (cumulative score*involvement)+cumulative score. T cell-transfer colitis model. Splenic T cells (CD3^+CD4^+CD25^-CD45RB^hi) were sorted from C57BL/6J WT mice and injected i.p. into C57BL/6J Rag2^-/- mice (5×10^5 cells/mouse). […] Mice were monitored weekly for weight loss and morbidity for 6-8 weeks as per the protocol's experimental endpoint guidelines and sacrificed at the terminal time point of 6 weeks post injection of splenic […].

[6] = WT ILC3s, propionate 10 mM, 1 h

## O=c1[nH]c2ccccc2n1C1CCN(Cc2ccc(-c3nc4cc5[nH]cnc5cc4nc3-c3ccccc3)cc2)CC1 [AKT inhibitor (VIII)]
Sorted colonic ILC3s [1]; AKT inhibitor VIII 1 h before stimulation with Ffar2 agonist
  STAT3 activation upon Ffar2 activation with the Ffar2 agonist: impaired
Sorted colonic ILC3s [2]; PTX 500 ng/mL, YM-254890 1 mM
  Il22 expression upon Ffar2 activation with the Ffar2 agonist: decreased 11-22, but to a lesser extent

## Cc1ccc(S(=O)(=O)OCC(=O)Nc2ccc(C(=O)O)c(O)c2)cc1 [STAT3 inhibitor (S31)]
Sorted colonic ILC3s [2]; PTX 500 ng/mL, YM-254890 1 mM
  Il22 expression upon Ffar2 activation with the Ffar2 agonist: impaired
Sorted colonic ILC3s [2]; PTX 500 ng/mL, YM-254890 1 mM, listed as STAT3 inhibitor
  Il22 expression upon Ffar2 activation with the Ffar2 agonist: decreased

## C=C1C(=O)NC(C)C(=O)N(C)C(C)C(=O)NC(C(OC(=O)C(NC(C)=O)C(O)C(C)C)C(C)C)C(=O)N(C)C(C(C)OC)C(=O)OC(C)C(NC(C)=O)C(=O)OC(Cc2ccccc2)C(=O)N1C (stereo not drawn) [YM-254890] (Ac-T[PhLac][NMeDha]A[NMeA][X1][NMeT](Me); ester 1-C; configuration not given here)
Sorted colonic ILC3s [2]; PTX 500 ng/mL, YM-254890 1 mM
  Il22 expression upon Ffar2 activation with the Ffar2 agonist: abolished
Sorted colonic ILC3s [2]; propionate 10 mM overnight, PTX 500 ng/mL, YM-254890 1 mM, ERK inhibitor 10 μM
  Il22 expression upon activation with propionate: decreased IL22 transcripts to a lesser extent

## CC(=O)[O-].[Na+] [sodium acetate]
Colonic ILC3s [3]
  colonic ILC3 numbers: increased
Sorted colonic ILC3s [2]
  Il22 mRNA expression in sorted ILC3s cultured with ligand: did not alter
Sorted colonic ILC3s [4]
  percentage of BrdU+ ILC3s: increased
Colonic ILC3s [5]
  colonic ILC3 frequency and number: increased
Ffar2
  agonism of Ffar2 among SCFAs: far more potent activators of Ffar2

## CCCC(=O)[O-].[Na+] [sodium butyrate]
Colonic ILC3s [5]
  colonic ILC3 frequency and number: did not change
Peyer's patch ILC3s
  effect on Peyer's patch ILC3s: suppress

## CCC(=O)[O-].[Na+] [sodium propionate]
C57BL/6 Rag2−/− mice
  colitis (histologic colitis score): ameliorated colitis similar to the effect of sodium propionate
Sorted colonic ILC3s [1]; WT ILC3s, propionate 10 mM, 30 min
  phosphorylation of AKT, p38, ERK and STAT3: did not induce
Sorted colonic ILC3s [1]; [6]
  pSTAT3+ ILC3s: did increase
  share of ILC3s that were pSTAT3+: 1%-1.5%
Sorted colonic ILC3s [1]; WT ILC3s, propionate 10 mM, 1 h compared with shorter time
  percentage of pERK+ ILC3s: comparable
Sorted colonic ILC3s [1]; WT ILC3s, propionate 10 mM, 1 h versus 30 min
  pERK level: did induce a higher pERK
Sorted colonic ILC3s [2]; acetate 10 mM, propionate 10 mM or Ffar2 agonist 10 mM
  Il22 mRNA expression in sorted ILC3s cultured with ligand: to a lesser extent, propionate increased
Sorted colonic ILC3s [4]
  percentage of BrdU+ ILC3s: did not
Colonic ILC3s [5]
  colonic ILC3 frequency and number: increased
Ffar2
  potency for Ffar2 compared with the synthetic Ffar2 agonist: lower potency
  agonism of Ffar2 among SCFAs: far more potent activators of Ffar2
